# Test results taken from patent US20020111282A1, “Antimicrobial compositions containing quaternary ammonium compounds, silanes and other disinfectants with furanones” (priority 2000, published 2002).
# What was measured:
# [1] = system: Cladosporium cladosporioides; assay: Zone of inhibition assay on TLC plates overlaid with agar containing fungal spores; assay type: cell-based; settings: 10 μl spotted
# Protocol: (§1) Fungi used: Alternaria alternata, Aureobasidium pullulans, Cladosporium cladosporioides, Penicillium digitatum Method: Base formulas for A, B, C and D were prepared as described in Table 1 below. Subsequently, test solutions were prepared either by: (1) taking a furanone or a base formula alone; or (2) by adding small amounts of suitably solubilized furanone (i.e., normally using ethanol) to a base formula so as to deliver a series of furanone concentrations in the test solutions (i.e., 10 ug/ml, 5 ug/ml, 1 ug/ml, 500 ng/ml, 100 ng/ml and 10 ng/ml). […] The various test solutions are set out at the left-hand margin of Tables 2A to 2D and can be described as follows: Once the test solutions were prepared, 10 μl of each test solution was spotted onto TLC plates. The plates were overlaid with agar containing fungal spores. The TLC plates were incubated in a high humidity environment until growth could be observed visually. At inhibitory furanone concentrations, a zone of inhibition where no fungal growth was observed formed above the test solution spot. Lower furanone concentrations resulting in a zone of inhibition correspond to higher test solution efficacy.
# [2] = system: Alternaria alternata; assay: as above; assay type: cell-based; settings: 10 μl spotted
# Protocol: as §1
# [3] = system: Penicillium digitatum; assay: as above; assay type: cell-based; settings: 10 μl spotted
# Protocol: as §1
# [4] = system: Aureobasidium pullulans; assay: as above; assay type: cell-based; settings: 10 μl spotted
# Protocol: as §1
# [5] = Solubility in water; assay type: physicochemical
# [6] = 10 ng/ml furanone in test solution
# [7] = 100 ng/ml furanone in test solution
# [8] = 500 ng/ml furanone in test solution
# [9] = 1 μg/ml furanone in test solution
# [10] = 5 μg/ml furanone in test solution
# [11] = 10 μg/ml furanone in test solution
compound,measurement,setting,value
O=C1C=C(Br)/C(=C/Br)O1 [Furanone 30],Zone of Inhibition with 10 ng/ml of Furanone (mm),[1]; [6],0 mm
same,Zone of Inhibition with 100 ng/ml of Furanone (mm),[1]; [7],9-10 mm
same,Zone of Inhibition with 500 ng/ml of Furanone (mm),[1]; [8],20-21 mm
same,Zone of Inhibition with 1 μg/ml of Furanone (mm),[1]; [9],20-30 mm
same,Zone of Inhibition with 5 μg/ml of Furanone (mm),[1]; [10],40-45 mm
same,Zone of Inhibition with 10 μg/ml of Furanone (mm),[1]; [11],42-56 mm
same,Zone of Inhibition with 10 ng/ml of Furanone (mm),[2]; [6],0 mm
same,Zone of Inhibition with 100 ng/ml of Furanone (mm),[2]; [7],2-3 mm
same,Zone of Inhibition with 500 ng/ml of Furanone (mm),[2]; [8],3-4 mm
same,Zone of Inhibition with 5 μg/ml of Furanone (mm),[2]; [10],35-37 mm
same,Zone of Inhibition with 10 μg/ml of Furanone (mm),[2]; [11],40-42 mm
same,Zone of Inhibition with 10 ng/ml of Furanone (mm),[3]; [6],0 mm
same,Zone of Inhibition with 100 ng/ml of Furanone (mm),[3]; [7],0 mm
same,Zone of Inhibition with 500 ng/ml of Furanone (mm),[3]; [8],10-19 mm
same,Zone of Inhibition with 1 μg/ml of Furanone (mm),[3]; [9],12-15 mm
same,Zone of Inhibition with 10 μg/ml of Furanone (mm),[3]; [11],32-45 mm
same,Zone of Inhibition with 10 ng/ml of Furanone (mm),[4]; [6],0 mm
same,Zone of Inhibition with 100 ng/ml of Furanone (mm),[4]; [7],0 mm
same,Zone of Inhibition with 500 ng/ml of Furanone (mm),[4]; [8],0 mm
same,Zone of Inhibition with 1 μg/ml of Furanone (mm),[4]; [9],0 mm
same,Zone of Inhibition with 5 μg/ml of Furanone (mm),[4]; [10],3-10 mm
same,Zone of Inhibition with 10 μg/ml of Furanone (mm),[4]; [11],15-17 mm
same,Solubility in water,[5],sparingly soluble in water
